Assay results from patent EP0447704A1, “N-Acylated azacyclic compounds, processes for their preparations and their use as medications” (Smithkline Beecham Farmaceutici S.p.A., priority 1990, dated 1991).
Structures can show the parent of a compound that is named as a salt.

Assays:
mice [1] = experiment: p-phenylquinone-induced abdominal writhing test in mice; type: in vivo, Male Charles River mice (Swiss Strain); conditions: subcutaneous, 20 min pretreatment, graded protection, limits in brackets; for ED50: Mus musculus, sc, 20 min, read-out: ANALGESIA M. WRITHING (GRADED) ED50
Protocol: A) p-phenylquinone-induced abdominal writhing test in mice
The methodology employed is based on that described by Sigmund et al, Proc. Soc. Exptl. Biol. 95, 729/1957, modified by Milne and Twomey, Agents and Actions, 10, 31/1980.
Male Charles River mice (Swiss Strain), 25-36g body weight, were used. Animals were allowed food and water ad libitum and were randomized into groups of 10 prior to experimentation. Test compounds were dissolved in either distilled water or distilled water plus 0.1 M AMS, and administered by the subcutaneous route in a final volume of 10 ml/Kg. Control animals received 10 ml/Kg of the appropriate vehicle alone. Following a pretreatment period of 20 min., mice were injected intraperitoneally with p-phenylquinone, 2 mg/Kg at 37 °C in a final volume of […]. […] During this period the number of abdominal writhing responses per animal were recorded where writhing consists of an intermittent contraction of the abdomen associated with hind leg extension.
The degree of antinociceptive protection afforded by the test compound was determined as the mean number of writhing responses observed in the treated group (T) expressed as a percentage of the mean number of writhing responses in the control group (C) according to the following formula: [1-(T/C]x100% = % graded protection

mice [2] = experiment: Tail-flick test in mice; type: in vivo, Male Charles River mice (Swiss Strain); conditions: for ED50: Mus musculus, 0.5 h, read-out: ANALGESIA M. TAIL-FLICK (QUANTAL) ED50; for ED50 / ANALGESIA M. TAIL-FLICK (QUANTAL) ED50: subcutaneous, 30 min pretreatment, quantal protection, limits in brackets; for ANALGESIA M. TAIL-FLICK (QUANTAL) ED50: 30 min; for M. TAIL-FLICK (QUANTAL) % protection: at 10 mg
Protocol: B) Tail-flick test in mice
The methodology employed is based on that described by D'Amour and Smith, J. Pharmacol. Exp. Ther. 72, 74/1941.
Male Charles River mice (Swiss Strain), 22-34g body weight were used. Animals were allowed food and water ad libitum and were randomized into groups of 10 prior to experimentation.
Test compounds were dissolved in either distilled water or distilled water plus 0.1 M AMS and administered by the subcutaneous route in a final volume of 10 ml/Kg. Control animals received 10 ml/kg of the appropriate vehicle alone. Following a pretreatment period of 30 min., the mice were again placed under the heat source and the reaction tine re-determined.
Percentage quantal protection was determined as the number of mice in which the reaction time was doubled compared to pretreatment values, expressed as a percentage of the total number of mice in the group.

CC1(C)CCCN(C(=O)Cc2ccc(C(F)(F)F)cc2)C1CN1CCCC1 (racemic) [Example 10, 1-(4-trifluoromethylphenyl)acetyl-2-(pyrrolidin-1-yl)methyl-3,3-dimethyl piperidine hydrochloride]
ED50 (mice [1]): 0.023 mg/kg
ED50 (mice [2]; sc): 0.116 mg/kg

CC1CCCN(C(=O)Cc2ccc(Cl)c(Cl)c2)C1CN1CCCC1 (single isomer, unassigned) [Example 1, 1-(3,4-dichlorophenyl)acetyl-2-(pyrrolidin-1-yl)methyl-3-methyl piperidine hydrochloride hemihydrate diasteroisomer A]
ANALGESIA M. TAIL-FLICK (QUANTAL) ED50 (mice [2]): 0.405 (0.230-0.607) mg/Kg sc

CC1CCCN(C(=O)Cc2ccc(Cl)c(Cl)c2)C1CN1CCCC1 (single isomer, unassigned) [Example 2, 1-(3,4-dichlorophenyl)acetyl-2-(pyrrolidin-1-yl)methyl-3-methyl piperidine hydrochloride diasteroisomer B]
ANALGESIA M. WRITHING (GRADED) ED50 (mice [1]): 0.091 (0.075-0.112) mg/Kg sc
ANALGESIA M. TAIL-FLICK (QUANTAL) ED50 (mice [2]): 0.147 (0.091-0.237) mg/Kg sc

CC1CCCC(CN2CCCC2)N1C(=O)Cc1ccc(Cl)c(Cl)c1 (single isomer, unassigned; diastereoisomer a) [Example 6, 1-(3,4-dichlorophenyl)acetyl-2-(pyrrolidin-1-yl)methyl-6-methyl piperidine hydrochloride hemihydrate Diastereoisomer A]
M. TAIL-FLICK (QUANTAL) % protection at single dose (mice [2]; sc, 1.78 mg/Kg): (1.78 mg/Kg 60%)

O=C(Cc1ccc(Cl)c(Cl)c1)N1CCCC(O)C1CN1CCCC1 (single isomer, unassigned; diastereoisomer a) [Example 7, 1-(3,4-dichlorophenyl)acetyl-2-(pyrrolidin-1-yl)methyl-3-hydroxy piperidine hydrochloride diastereoisomer A trans]
ED50 (mice [1]): 0.141 mg/kg
ED50 (mice [2]; sc): 0.825 mg/kg
DURATION OF ACTION M. TAIL-FLICK (GRADED) % ACTIVITY AT MTFQ ED50 30' (mice [2]; dose = mouse tail-flick quantal ED50, 30'): 87%
DURATION OF ACTION M. TAIL-FLICK (GRADED) % ACTIVITY AT MTFQ ED50 90' (mice [2]; dose = mouse tail-flick quantal ED50, 90'): 39%

O=C(Cc1ccc(Cl)c(Cl)c1)N1CCCC(O)C1CN1CCCC1 (single isomer, unassigned; diastereoisomer b) [Example 8, 1-(3,4-dichlorophenyl)acetyl-2-(pyrrolidin-1-yl)methyl-3-hydroxy piperidine hydrochloride diastereoisomer B cis]
M. TAIL-FLICK (QUANTAL) % protection (mice [2]; sc): at 10 mg = 20% protection

CC1(C)CCCN(C(=O)Cc2ccc3c(c2)CCCC3=O)C1CN1CCCC1 (stereo not drawn) [Example 13, 1-[1-oxo-3,4-dihydro-(2H)-napht-6-yl]acetyl-2-(pyrrolidin-1-yl)methyl-3,3-dimethyl piperidine]
M. TAIL-FLICK (QUANTAL) % protection (mice [2]; sc): at 10 mg = 60% protection
